Test results: BindingDB's records for doi:10.1007/bfb0000613 (German Institute of Human Nutrition, 1998)
Where “and” joins values, the source holds several entries; their conditions need not be identical. Equal values may be shown once. *1 amine or outer side, *2 acyl side, *3 side chain or, on linkers, in order; H or OH if unused. Where a SMILES comes first, the peptide text is derived from it. Bridges are numbered along the chain shown (N, C = ends). [ ]: non-standard residue; d: D form. ξ: configuration not given here. Phe(4-CH2NHiPr) = CC(C)NCc1ccc(C[C@H](N)C(=O)O)cc1; X2 = CC(C)NCc1ccc(C[C@@H](N[*:1])C(=O)[*:2])cc1; d1Nal = N[C@H](Cc1cccc2ccccc12)C(=O)O; Thr(3ξ) = CC(O)[C@H](N)C(=O)O; ξF = NC(Cc1ccccc1)C(=O)O; ξK = NCCCCC(N)C(=O)O; ξT = CC(O)C(N)C(=O)O; Ahp = NCCCCCCC(=O)O

How the values were obtained:
[1] = molecular target: Somatostatin receptor type 3 (Rattus norvegicus, UniProt P30936)
[2] = molecular target: T1, Somatostatin receptor type 5 (Rattus norvegicus, UniProt P30938)
T1 sequence (P30938 whole entry): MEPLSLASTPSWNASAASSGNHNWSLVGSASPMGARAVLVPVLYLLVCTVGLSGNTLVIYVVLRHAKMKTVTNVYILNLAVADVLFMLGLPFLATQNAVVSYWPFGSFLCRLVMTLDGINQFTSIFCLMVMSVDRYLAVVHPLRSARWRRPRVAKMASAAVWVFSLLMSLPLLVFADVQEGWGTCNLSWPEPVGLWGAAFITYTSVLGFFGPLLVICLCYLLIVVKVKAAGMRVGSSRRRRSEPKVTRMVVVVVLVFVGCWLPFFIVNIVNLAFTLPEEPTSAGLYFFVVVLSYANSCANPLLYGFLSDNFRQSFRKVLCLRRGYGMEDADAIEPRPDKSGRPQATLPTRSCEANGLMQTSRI

[3] = molecular target: Somatostatin receptor type 2 (Rattus norvegicus, UniProt P30680)
[4] = molecular target: Somatostatin receptor type 2 (Mus musculus, UniProt P30875)
[5] = molecular target: Somatostatin receptor type 5 (Homo sapiens, UniProt P35346)
[6] = molecular target: Somatostatin receptor type 1 (Homo sapiens, UniProt P30872)
[7] = molecular target: Somatostatin receptor type 4 (Homo sapiens, UniProt P31391)
[8] = molecular target: Somatostatin receptor type 2 (Homo sapiens, UniProt P30874)
Sequence of Somatostatin receptor type 2 (Homo sapiens, UniProt P30874) (P30874 whole entry): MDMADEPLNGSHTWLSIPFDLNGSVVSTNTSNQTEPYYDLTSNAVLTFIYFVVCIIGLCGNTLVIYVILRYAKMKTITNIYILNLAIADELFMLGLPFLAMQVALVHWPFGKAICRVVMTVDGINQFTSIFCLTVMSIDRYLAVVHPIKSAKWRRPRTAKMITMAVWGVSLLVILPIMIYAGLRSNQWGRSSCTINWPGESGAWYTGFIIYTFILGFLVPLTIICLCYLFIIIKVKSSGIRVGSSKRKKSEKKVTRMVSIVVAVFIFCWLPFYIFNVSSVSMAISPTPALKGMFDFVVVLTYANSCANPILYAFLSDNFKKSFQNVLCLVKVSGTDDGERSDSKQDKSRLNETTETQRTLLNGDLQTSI

Sequence of Somatostatin receptor type 2 (Rattus norvegicus, UniProt P30680) (P30680 whole entry): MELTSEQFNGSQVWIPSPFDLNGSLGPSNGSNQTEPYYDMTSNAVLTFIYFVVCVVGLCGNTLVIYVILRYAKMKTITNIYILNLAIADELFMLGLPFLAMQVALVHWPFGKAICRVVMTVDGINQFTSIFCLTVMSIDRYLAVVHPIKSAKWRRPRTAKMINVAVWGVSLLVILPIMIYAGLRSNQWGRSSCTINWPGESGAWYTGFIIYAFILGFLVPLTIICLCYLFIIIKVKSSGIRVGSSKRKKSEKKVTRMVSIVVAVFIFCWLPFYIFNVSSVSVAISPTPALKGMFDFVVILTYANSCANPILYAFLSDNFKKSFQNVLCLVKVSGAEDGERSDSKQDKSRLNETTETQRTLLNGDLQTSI
Sequence of Somatostatin receptor type 3 (P30936 whole entry): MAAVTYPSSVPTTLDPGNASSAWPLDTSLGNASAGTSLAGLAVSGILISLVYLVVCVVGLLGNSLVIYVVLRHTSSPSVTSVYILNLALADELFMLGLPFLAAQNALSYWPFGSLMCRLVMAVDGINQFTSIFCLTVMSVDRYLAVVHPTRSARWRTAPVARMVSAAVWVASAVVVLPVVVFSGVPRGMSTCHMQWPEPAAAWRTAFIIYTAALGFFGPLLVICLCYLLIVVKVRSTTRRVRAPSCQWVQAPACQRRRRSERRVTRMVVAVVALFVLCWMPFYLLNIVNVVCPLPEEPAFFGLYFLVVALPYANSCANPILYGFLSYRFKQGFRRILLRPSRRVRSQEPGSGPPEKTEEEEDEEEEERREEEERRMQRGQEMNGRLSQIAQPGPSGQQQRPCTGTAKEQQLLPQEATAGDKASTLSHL
Sequence of Somatostatin receptor type 4 (P31391 whole entry): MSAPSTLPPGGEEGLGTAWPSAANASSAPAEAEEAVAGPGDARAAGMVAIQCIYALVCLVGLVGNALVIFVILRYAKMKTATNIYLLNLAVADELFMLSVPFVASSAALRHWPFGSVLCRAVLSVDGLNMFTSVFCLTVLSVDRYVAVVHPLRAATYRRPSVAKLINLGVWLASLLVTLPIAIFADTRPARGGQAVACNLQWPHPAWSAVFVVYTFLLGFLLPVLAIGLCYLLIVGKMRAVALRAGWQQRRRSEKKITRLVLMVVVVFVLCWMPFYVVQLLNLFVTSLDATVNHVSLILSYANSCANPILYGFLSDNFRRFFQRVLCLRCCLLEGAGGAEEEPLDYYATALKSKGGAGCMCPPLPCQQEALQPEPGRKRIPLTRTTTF
Sequence of Somatostatin receptor type 2 (Mus musculus, UniProt P30875) (P30875 whole entry): as the sequence (P30680 whole entry) above, with L3M, T4S, F8L, I15V, P16S, G168C, A335T counted along it
Sequence of Somatostatin receptor type 5 (Homo sapiens, UniProt P35346) (P35346 whole entry): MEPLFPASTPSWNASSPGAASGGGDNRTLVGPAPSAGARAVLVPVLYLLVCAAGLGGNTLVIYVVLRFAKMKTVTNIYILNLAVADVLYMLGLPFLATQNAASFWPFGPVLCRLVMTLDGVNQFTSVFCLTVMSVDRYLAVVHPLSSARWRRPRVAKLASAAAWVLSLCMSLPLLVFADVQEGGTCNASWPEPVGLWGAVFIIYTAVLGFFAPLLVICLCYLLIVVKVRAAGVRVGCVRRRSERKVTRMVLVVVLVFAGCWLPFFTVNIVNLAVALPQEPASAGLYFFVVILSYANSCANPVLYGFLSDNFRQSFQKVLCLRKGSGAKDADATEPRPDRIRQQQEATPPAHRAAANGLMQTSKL
Sequence of Somatostatin receptor type 1 (P30872 whole entry): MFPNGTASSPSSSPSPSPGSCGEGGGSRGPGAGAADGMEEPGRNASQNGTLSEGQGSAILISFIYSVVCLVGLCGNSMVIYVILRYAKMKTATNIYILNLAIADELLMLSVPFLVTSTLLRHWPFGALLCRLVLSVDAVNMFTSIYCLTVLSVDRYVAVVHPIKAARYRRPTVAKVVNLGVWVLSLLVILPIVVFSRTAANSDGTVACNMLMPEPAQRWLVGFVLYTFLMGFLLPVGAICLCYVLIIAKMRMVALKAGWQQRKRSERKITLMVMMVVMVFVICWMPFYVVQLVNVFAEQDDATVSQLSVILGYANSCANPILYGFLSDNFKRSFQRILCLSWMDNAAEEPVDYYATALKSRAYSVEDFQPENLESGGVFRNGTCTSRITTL

Compound	Ki [1] [nM]	Ki [2] [nM]	Ki [3] [nM]	Ki [4]	Ki [5] [nM]	Ki [6]	Ki [7] [nM]	Ki [8] [nM]
C[C@@H](O)[C@@H]1NC(=O)[C@H](CCCCN)NC(=O)[C@@H](Cc2c[nH]c3ccccc23)NC(=O)[C@H](Cc2ccccc2)NC(=O)[C@@H](NC(=O)[C@H](N)Cc2ccccc2)CSSC[C@@H](C(=O)N[C@H](CO)[C@@H](C)O)NC1=O	14							
CC(O)[C@H](CO)NC(=O)[C@@H]1CSSCC(NC(=O)C(N)Cc2ccccc2)C(=O)N[C@H](Cc2ccccc2)C(=O)N[C@H](Cc2c[nH]c3ccccc23)C(=O)N[C@H](CCCCN)C(=O)N[C@H](C(C)O)C(=O)N1 (some centres not stated)		17						
C[C@@H](O)[C@@H]1NC(=O)[C@H](CCCCN)NC(=O)[C@@H](Cc2c[nH]c3ccccc23)NC(=O)[C@H](Cc2ccccc2)NC(=O)[C@H](Cc2ccccc2)NC(=O)[C@H](N)CSSC[C@H](C(N)=O)NC(=O)[C@H](Cc2ccccc2)NC1=O	4.1		101	1.49 nM and 11 nM	2.18	582 nM		
CC(O)[C@H]1NC(=O)[C@H](CCCCN)NC(=O)[C@H](Cc2c[nH]c3ccccc23)NC(=O)[C@H](Cc2ccccc2)NC(=O)[C@@H](Cc2ccccc2)NC(=O)[C@H](N)CSSC[C@H](C(N)=O)NC(=O)[C@H](Cc2ccccc2)NC1=O (some centres not stated)		3.4						
CC(C)[C@@H]1NC(=O)[C@H](CCCCN)NC(=O)[C@@H](Cc2c[nH]c3ccccc23)NC(=O)[C@H](Cc2ccc(O)cc2)NC(=O)[C@@H](NC(=O)[C@H](N)Cc2ccc3ccccc3c2)CSSC[C@@H](C(=O)N[C@H](C(N)=O)[C@@H](C)O)NC1=O [3-(2-Naphtyl)-D-Ala-L-Cys(1)-L-Tyr-D-Trp-L-Lys-L-Val-L-Cys(1)-L-Thr-NH2]	115	23	1.47					
CC(C)[C@H](NC(=O)[C@H](CCCCN)NC(=O)[C@@H](Cc1c[nH]c2ccccc12)NC(=O)[C@H](Cc1ccc(O)cc1)NC(=O)[C@H](Cc1ccccc1)NC(=O)[C@@H](N)Cc1ccccc1)C(=O)N[C@@H](Cc1ccccc1)C(=O)N[C@H](Cc1cccc2ccccc12)C(N)=O [BIM 23056] (H-FFY[dW]KVF[d1Nal]-NH2)		536						
CC(C)[C@H](NC(=O)[C@H](CCCCN)NC(=O)[C@@H](Cc1c[nH]c2ccccc12)NC(=O)[C@H](Cc1ccc(O)cc1)NC(=O)[C@H](Cc1ccccc1)NC(=O)[C@H](N)Cc1ccccc1)C(=O)N[C@@H](Cc1ccccc1)C(=O)N[C@H](Cc1cccc2ccccc12)C(N)=O [BIM 23056] (H-[dF]FY[dW]KVF[d1Nal]-NH2)	272		3400	132 nM	12	692 nM	174	
CC(O)[C@@H](NC(=O)[C@H](CCCCN)NC(=O)[C@@H](Cc1c[nH]c2ccccc12)NC(=O)[C@H](Cc1ccc(O)cc1)NC(=O)C(Cc1ccccc1)NC(=O)C(N)CS)C(=O)NC(Cc1ccccc1)C(=O)NC(CS)C(N)=O (some centres not stated) [BIM 23295]	5.7	0.65	57		0.34	86.8 nM	3.36	
CC(O)[C@@H](NC(=O)[C@H](CCCCN)NC(=O)[C@@H](Cc1c[nH]c2ccccc12)NC(=O)[C@H](Cc1ccccc1)NC(=O)C(Cc1ccccc1)NC(=O)C(N)CS)C(=O)NC(Cc1ccccc1)C(=O)NC(CS)C(N)=O (some centres not stated) [BIM 23313]	11.2	9.88	45		0.27	151 nM	55.3	
CC(C)C1NC(=O)C(CCCCN)NC(=O)C(Cc2c[nH]c3ccccc23)NC(=O)C(Cc2ccc(O)cc2)NC(=O)C(NC(=O)C(N)Cc2ccccc2)CSSCC(C(=O)NC(Cc2c[nH]c3ccccc23)C(N)=O)NC1=O (configuration not stated) [CAS_71306] (H-FCYWKVCW-NH2; disulfide 2-7; configuration not given here)		6.8						
CC(C)[C@@H]1NC(=O)[C@H](CCCCN)NC(=O)[C@@H](Cc2c[nH]c3ccccc23)NC(=O)[C@H](Cc2ccc(O)cc2)NC(=O)[C@@H](NC(=O)[C@H](N)Cc2ccccc2)CSSC[C@@H](C(=O)N[C@@H](Cc2c[nH]c3ccccc23)C(N)=O)NC1=O [CAS_71306] (H-[dF]CY[dW]KVCW-NH2; disulfide 2-7)	87		0.85			481 nM	351	
C[C@@H](O)[C@H](NC(=O)[C@H](Cc1ccccc1)NC(=O)[C@@H](NC(=O)[C@H](CCCCN)NC(=O)[C@@H](Cc1c[nH]c2ccccc12)NC(=O)[C@H](Cc1ccccc1)NC(=O)[C@H](Cc1ccccc1)NC(=O)[C@H](N)Cc1ccccc1)[C@@H](C)O)C(N)=O [CAS_133073-82-2] (H-[dF]FF[dW]KTFT-NH2)	3.5	2.4	69	11.9 nM and 5.58 nM				
CC(C)C1NC(=O)C(CCCCN)NC(=O)C(Cc2c[nH]c3ccccc23)NC(=O)C(Cc2ccc(O)cc2)NC(=O)C(C)N(C)C(=O)C(Cc2ccccc2)NC1=O (configuration not stated) [CAS_3086456]		72						
CC(C)[C@@H]1NC(=O)[C@H](CCCCN)NC(=O)[C@@H](Cc2c[nH]c3ccccc23)NC(=O)[C@H](Cc2ccc(O)cc2)NC(=O)[C@H](C)N(C)C(=O)[C@H](Cc2ccccc2)NC1=O [CAS_3086456]	45		0.48		15.5			
CC(C)NCc1ccc(C[C@@H]2NC(=O)[C@@H](Cc3c[nH]c4ccccc34)NC(=O)[C@H](Cc3ccccc3)NC(=O)[C@H](Cc3ccccc3)NC(=O)[C@H](CCCCN)NC(=O)[C@@H](N)CSSC[C@@H](C(=O)O)NC(=O)[C@H](CO)NC(=O)[C@H]([C@@H](C)O)NC(=O)[C@H](Cc3ccccc3)NC(=O)[C@H]([C@@H](C)O)NC2=O)cc1 [CH-275] (H-CKFF[dW][Phe(4-CH2NHiPr)]TFTSC-OH; disulfide 1-11)				1000 nM		1.8 nM and 4.9 nM	874	1000
CC(C)NCc1ccc(C[C@H]2NC(=O)[C@H](Cc3c[nH]c4ccccc34)NC(=O)C(Cc3ccccc3)NC(=O)C(Cc3ccccc3)NC(=O)C(CCCCN)NC(=O)[C@H](N)CSSC[C@H](C(=O)O)NC(=O)[C@@H](CO)NC(=O)[C@H](C(C)O)NC(=O)[C@@H](Cc3ccccc3)NC(=O)C(C(C)O)NC2=O)cc1 (some centres not stated) [CH-275] (H-[dC][ξK][ξF][ξF]W[X2][ξT][dF][Thr(3ξ)][dS][dC]-OH; disulfide 1-11)		632						
CC[C@@H]1NC(=O)[C@H](CCCCN)NC(=O)[C@@H](Cc2c[nH]c3ccccc23)NC(=O)[C@H](Cc2ccc(O)cc2)NC(=O)[C@@H](NC(=O)[C@H](N)Cc2ccccc2)CSSC[C@@H](C(=O)N[C@H](C(N)=O)[C@@H](C)O)NC1=O [D-Phe-L-Cys(1)-L-Tyr-D-Trp-L-Lys-L-Abu-L-Cys(1)-L-Thr-NH2]	92	14	0.57					
C[C@@H](O)[C@@H]1NC(=O)[C@H](CCCCN)NC(=O)[C@@H](Cc2c[nH]c3ccccc23)NC(=O)[C@H](Cc2c[nH]c3ccccc23)NC(=O)[C@H](Cc2ccccc2)NC(=O)CCCCCCNC(=O)[C@H](Cc2ccccc2)NC1=O [L-362855] (cyclo([Ahp]FW[dW]KTF))	33	51	12		0.76		467	
CSCC[C@H](NC(=O)[C@H](C)NC(=O)[C@@H]1CCCN1C(=O)[C@H](CC(N)=O)NC(=O)[C@H](CO)NC(=O)[C@H](CC(N)=O)NC(=O)[C@H](C)NC(=O)[C@@H](N)CO)C(=O)N[C@@H](C)C(=O)N1CCC[C@H]1C(=O)N[C@@H](CCCNC(=N)N)C(=O)N[C@@H](CCC(=O)O)C(=O)N[C@@H](CCCNC(=N)N)C(=O)N[C@@H](CCCCN)C(=O)N[C@@H](C)C(=O)NCC(=O)N[C@H]1CSSC[C@@H](C(=O)O)NC(=O)[C@H](CO)NC(=O)[C@H]([C@@H](C)O)NC(=O)[C@H](Cc2ccccc2)NC(=O)[C@H]([C@@H](C)O)NC(=O)[C@H](CCCCN)NC(=O)[C@H](Cc2c[nH]c3ccccc23)NC(=O)[C@H](Cc2ccccc2)NC(=O)[C@H](Cc2ccccc2)NC(=O)[C@H](CC(N)=O)NC(=O)[C@H](CCCCN)NC1=O [L-Ser-L-Ala-L-Asn-L-Ser-L-Asn-L-Pro-L-Ala-L-Met-L-Ala-L-Pro-L-Arg-L-Glu-L-Arg-L-Lys-L-Ala-Gly-L-Cys(1)-L-Lys-L-Asn-L-Phe-L-Phe-L-Trp-L-Lys-L-Thr-L-Phe-L-Thr-L-Ser-L-Cys(1)-OH]	0.81							
